Source: patent publication US20110178170A1, “GRISEOFULVIN ANALOGUES FOR THE TREATMENT OF CANCER BY INHIBITION OF CENTROSOMAL CLUSTERING” (DKFZ Deutsches Krebsforschungszentrum, priority 2007, published 2011)

How the values were obtained:
tumor cell lines = experiment: cell-based screening for inhibition of centrosomal clustering (multipolar mitotic spindles); design: species or system human; settings: several different tumor cell lines; screening of Penicillium extracts
Excerpt: Supernumerary centrosomes do almost exclusively occur in a wide variety of neoplastic disorders but not in non-transformed cells. Therefore, inhibition of centrosomal clustering with consequential induction of multipolar spindles and subsequent cell death would specifically target tumor cells with no impact on normal cells with a regular centrosome content. To identify cell-permeable small molecules that inhibit centrosomal clustering in cells with supernumerary centrosomes, we developed a cell-based screening strategy founded on the visualization of microtubules and chromatin.
Therefore, we decided to screen a fungal extract library for compounds inhibiting centrosomal clustering. The fungal extracts were selected based on a chemotaxonomic screening approach, in order to increase the chemodiversity to be tested.
The FIGS. 1 to 12 give representative examples of compounds, which have been prepared in the framework of the present invention, together with their activity, which has been determined as described below.
Cell Culture. All cell lines were cultured in Dulbecco's modified Eagle's Medium (DMEM; PAA Laboratories, Pasching, Austria) supplemented with 10% FCS (PAA). […]
Immunofluorescence. […] Immunostained cells were examined using a Zeiss Axiovert 200 M fluorescence microscope (Göttingen, Germany). […]

cancer cells = settings: compared with griseofulvin; cited from earlier work

Row | SMILES | inhibition of centrosome coalescence (tumor cell lines) | inhibiting effect on cancer cells relative to griseofulvin (cancer cells)
1 | COC1=CC(=O)C[C@@H](C)[C@]12Oc1c(Cl)c(OC)cc(OC)c1C2=O [griseofulvin, (2-5-trans)-7-chloro-2,4,6-trimethoxy-6-methylspiro-[benzofuran-2(3H), 1-(2)-cyclohexene]-3,4-dione] | inhibitor of centrosome coalescence | 
2 | CCCOC1=CC(=O)C[C@@H](C)[C@]12Oc1c(Cl)c(OC)cc(OC)c1C2=O |  | stronger inhibiting effect on cancer cells than griseofulvin itself
